Source: patent US12029816B2, “Compositions and methods of making brittle-matrix particles through blister pack freezing” (BOARD OF REGENTS, THE UNIVERSITY OF TEXAS SYSTEM, priority 2010, dated 2024)

Details: pH 7.4
Experimental: HFA-exposed TFF ITZ powder (1 mg) was added to 50 mL of dissolution media to yield an initial drug loading of 20 μg/mL. Sample aliquots (1.5 mL) were taken from the dissolution vessels at various time points. The aliquots were filtered immediately using a 0.2 μm syringe filter. […] TFF ITZ powder that had been previously exposed to HFA 227 (1 mg) was added to the dissolution media (50 mL) to achieve an initial loading of 20 μg ITZ/mL. All samples were filtered with 0.2 μm pore size filters.

equilibrium solubility: 1.4 µg/mL
SMILES: CCC(C)n1ncn(-c2ccc(N3CCN(c4ccc(OCC5COC(Cn6cncn6)(c6ccc(Cl)cc6Cl)O5)cc4)CC3)cc2)c1=O (stereo not shown) [crystalline ITZ, itraconazole]
